# Experiments:
# Septoria tritici = test: Growth inhibition in nutrient broth, Septoria tritici (leaf blotch), photometric; format: cell-based; details: Zymoseptoria tritici, PDB broth, 24 C, 72 hrs, read-out: control of fungal infection, Septoria tritici
# Plasmopara viticola = test: Leaf disk assay, Plasmopara viticola (downy mildew of grapevine), preventive; format: in vivo; details: foliar, 168 h, grapevine leaf disks, assessed seven days after inoculation, read-out: control of fungal infection, Plasmopara viticola
# Pythium ultimum = test: Growth inhibition in potato dextrose broth, Pythium ultimum (damping off), photometric; format: cell-based; details: Globisporangium ultimum, 24° C., 48 hours, read-out: control of fungal infection, Pythium ultimum
# In short: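 Growth inhibition was read photometrically at 48 hours after incubation at 24° C. Test compound was diluted from DMSO to 20 ppm in water and combined with potato dextrose broth seeded with Pythium ultimum mycelial fragments.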
# Phytophthora infestans = test: whole plant or invertebrate; format: in vivo; details: in Solanum lycopersicum, foliar, 96 h, read-out: control of fungal infection, Phytophthora infestans
# Botrytis cinerea = test: Leaf disk assay, Botrytis cinerea (grey mould) on bean, preventive; format: in vivo; details: foliar, 96 h, bean leaf disks, assessed four days after inoculation, read-out: control of fungal infection, Botrytis cinerea
# [1] = system: Erysiphe graminis f.sp. tritici; test: Leaf disk assay, Erysiphe graminis f.sp. tritici (wheat powdery mildew), preventive; format: in vivo; details: Blumeria graminis, foliar, 96 h, wheat leaf segments, assessed four days after inoculation, read-out: control of fungal infection, Erysiphe graminis f.sp. tritici
# In short: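 Wheat leaf segments on agar were sprayed with compound at 200 ppm (DMSO stock diluted in water). After 12–24 h drying they were inoculated with powdery mildew spores. Preventive activity was scored 4 days after inoculation.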
# Pyrenophora teres = test: Leaf disk assay, Pyrenophora teres (barley net blotch), preventive; format: in vivo; details: foliar, 96 h, barley leaf segments, assessed four days after inoculation, read-out: control of fungal infection, Pyrenophora teres
# Protocol: The compounds were tested in a leaf disk assay, with methods described below. The test compounds were dissolved in DMSO and diluted into water to 200 ppm. In the case of the test on Pythium ultimum, they were dissolved in DMSO and diluted into water to 20 ppm. Pyrenophora teres (barley net blotch): Barley leaf segments were placed on agar in a 24-well plate and sprayed with a solution of the test compound. After allowing to dry completely, for between 12 and 24 hours, the leaf disks were inoculated with a spore suspension of the fungus. After appropriate incubation the activity of a compound was assessed four days after inoculation as preventive fungicidal activity.
# [2] = system: Puccinia recondita f.sp. tritici; test: Leaf disk assay, Puccinia recondita f.sp. tritici (wheat brown rust), preventive; format: in vivo; details: foliar, 216 h, wheat leaf segments, assessed nine days after inoculation, read-out: control of fungal infection, Puccinia recondita f.sp. tritici
# Septoria nodorum = test: Leaf disk assay, Septoria nodorum (wheat glume blotch), preventive; format: in vivo; details: Parastagonospora nodorum, foliar, 96 h, wheat leaf segments, assessed four days after inoculation, read-out: control of fungal infection, Septoria nodorum
# Fusarium culmorum = test: Growth inhibition in nutrient broth, Fusarium culmorum (root rot), photometric; format: cell-based; details: 48 h, read-out: control of fungal infection, Fusarium culmorum
# In short: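 Fusarium culmorum conidia in potato dextrose broth were added to compounds in DMSO. Plates were incubated at 24 C for 48 hrs, with growth inhibition read photometrically. […]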
Compound,melting point,inhibition of growth at 60 ppm (Septoria tritici),pest or weed control at 200 ppm (Plasmopara viticola),inhibition of growth at 20 ppm (Pythium ultimum),pest or weed control at 200 ppm (Phytophthora infestans),pest or weed control at 200 ppm (Botrytis cinerea),pest or weed control at 200 ppm [1],pest or weed control at 200 ppm (Pyrenophora teres),pest or weed control at 200 ppm [2],pest or weed control at 200 ppm (Septoria nodorum),inhibition of growth at 60 ppm (Fusarium culmorum)
"C#Cc1cnc2ccc(OC(SC)C(=O)N(O)C(C)(C)C)cc2c1 (centres unmarked) [Compound 147, N-tert-Butyl-2-(3-ethynyl-quinolin-6-yloxy)-N-hydroxy-2-methylsulfanyl-acetamide]",164 °C,,,,,,,,,,
COCC#Cc1cnc2ccc(OC(SC)C(=O)NC(C)(C)C#CCOC)cc2c1 (centres unmarked) [Example 44],,≥ 60%,≥ 60%,≥ 60%,≥ 60%,≥ 60%,≥ 60%,,,,
"C#Cc1cnc2cc(F)c(OC(SC)C(=O)NC(C)(C#N)CO)cc2c1 (centres unmarked) [Compound 174, N-(1-Cyano-2-hydroxy-1-methyl-ethyl)-2-(3-ethynyl-7-fluoro-quinolin-6-yloxy)-2-methylsulfanyl-acetamide]",80 to 83 °C,,,,,,,,,,
C#Cc1cnc2cc(F)c(OC(SC)C(=O)NC(C)(C)C#CCOC)cc2c1 (centres unmarked) [Example 66],,≥ 60%,≥ 60%,≥ 60%,≥ 60%,≥ 60%,≥ 60%,≥ 60%,≥ 60%,≥ 60%,≥ 60%
C#CCC(C)(C)NC(=O)C(Oc1cc(Cl)c2ncc(C#C)cc2c1)SC (centres unmarked) [Example 75],,≥ 60%,≥ 60%,≥ 60%,≥ 60%,≥ 60%,≥ 60%,≥ 60%,≥ 60%,≥ 60%,≥ 60%
C#Cc1cnc2c(C)cc(OC(SC)C(=O)NC(C)(C)C=O)cc2c1 (centres unmarked) [Example 73],,≥ 60%,≥ 60%,≥ 60%,≥ 60%,≥ 60%,≥ 60%,≥ 60%,,≥ 60%,
CC#Cc1cnc2ccc(OC(SC)C(=O)NC(C)(C)C#CC)cc2c1 (centres unmarked) [Example 56],,≥ 60%,≥ 60%,≥ 60%,≥ 60%,≥ 60%,≥ 60%,,,≥ 60%,
C#CCOCC(C)(C)NC(=O)C(Oc1ccc2ncc(C#C)cc2c1)SC (centres unmarked) [Example 30],,≥ 60%,≥ 60%,≥ 60%,≥ 60%,≥ 60%,≥ 60%,≥ 60%,≥ 60%,≥ 60%,≥ 60%
CC#CC(C)(C)NC(=O)C(OC)Oc1ccc2ncc(C#C[Si](C)(C)C)cc2c1 (centres unmarked) [Example 79],,≥ 60%,≥ 60%,,≥ 60%,≥ 60%,≥ 60%,,,,
C#CCOCC#CC(C)(C)NC(=O)C(Oc1cc(Cl)c2ncc(C#C)cc2c1)SC (centres unmarked) [Example 63],,≥ 60%,≥ 60%,≥ 60%,≥ 60%,≥ 60%,≥ 60%,≥ 60%,≥ 60%,≥ 60%,
CSC(Oc1cc(C)c2ncc(C#CCO)cc2c1)C(=O)NC(C)(C)C (centres unmarked) [Example 17],,≥ 60%,≥ 60%,≥ 60%,≥ 60%,≥ 60%,,,,,
C#CCOCCC(C)(C#N)NC(=O)C(Oc1ccc2ncc(C#C)cc2c1)SC (centres unmarked) [Example 72],,≥ 60%,≥ 60%,≥ 60%,≥ 60%,≥ 60%,≥ 60%,≥ 60%,≥ 60%,≥ 60%,
COCC#CC(C)(C)NC(=O)C(Oc1cc(C)c2ncc(C#CCO)cc2c1)SC (centres unmarked) [Example 28],,,,≥ 60%,≥ 60%,≥ 60%,,,,,
C#CCC(C)(C)NC(=O)C(Oc1ccc2ncc(C#C)cc2c1)SC (centres unmarked) [Example 31],,≥ 60%,≥ 60%,≥ 60%,≥ 60%,≥ 60%,≥ 60%,≥ 60%,≥ 60%,≥ 60%,≥ 60%
C#Cc1cnc2c(F)c(F)c(OC(SC)C(=O)NC(C)(C)C)cc2c1 (centres unmarked) [Example 219],,≥ 60%,≥ 60%,≥ 60%,≥ 60%,,≥ 60%,≥ 60%,≥ 60%,≥ 60%,≥ 60%
C#Cc1cnc2c(C)cc(OC(SC)C(=O)NC(C)(C)CF)cc2c1 (centres unmarked) [Example 93],,≥ 60%,≥ 60%,≥ 60%,≥ 60%,,≥ 60%,≥ 60%,≥ 60%,≥ 60%,≥ 60%
C#Cc1cnc2c(Cl)cc(OC(SC)C(=O)NC(C)(C)C#CC)cc2c1 (centres unmarked) [Example 20],,≥ 60%,≥ 60%,≥ 60%,≥ 60%,≥ 60%,≥ 60%,≥ 60%,≥ 60%,≥ 60%,≥ 60%
CC#CC(C)(C)NC(=O)C(Oc1ccc2ncc(C#CCOC)cc2c1)SC (centres unmarked) [Example 45],,≥ 60%,≥ 60%,≥ 60%,≥ 60%,≥ 60%,≥ 60%,,,,
C#Cc1cnc2c(Br)cc(OC(SC)C(=O)NC(C)(C)C#CCOC)cc2c1 (centres unmarked) [Example 70],,≥ 60%,≥ 60%,≥ 60%,≥ 60%,≥ 60%,≥ 60%,≥ 60%,≥ 60%,≥ 60%,
C#Cc1cnc2cc(F)c(OC(SC)C(=O)NC(C)(C)C#C)cc2c1 (centres unmarked) [Example 106],,≥ 60%,≥ 60%,≥ 60%,≥ 60%,,≥ 60%,≥ 60%,≥ 60%,≥ 60%,≥ 60%
C#Cc1cnc2ccc(OC(SC)C(=O)NC(C)(C)C#C)cc2c1 (centres unmarked) [Example 21],,≥ 60%,≥ 60%,≥ 60%,≥ 60%,,≥ 60%,≥ 60%,≥ 60%,≥ 60%,≥ 60%
C#Cc1cnc2ccc(OC(SC)C(=O)NC(C)(C)COC)cc2c1 (centres unmarked) [Example 29],,≥ 60%,≥ 60%,≥ 60%,≥ 60%,,≥ 60%,≥ 60%,≥ 60%,≥ 60%,≥ 60%
